# Data taken from patent US6495569B1, “Imidazolidine compounds” (Millennium Pharmaceuticals, Inc., priority 2001, dated 2002).
# Molecular target: T1, CXCR3 (Homo sapiens, UniProt P49682)
# T1 construct: expressed in transfected cells; membrane preparation
# T1 sequence (P49682 1-368): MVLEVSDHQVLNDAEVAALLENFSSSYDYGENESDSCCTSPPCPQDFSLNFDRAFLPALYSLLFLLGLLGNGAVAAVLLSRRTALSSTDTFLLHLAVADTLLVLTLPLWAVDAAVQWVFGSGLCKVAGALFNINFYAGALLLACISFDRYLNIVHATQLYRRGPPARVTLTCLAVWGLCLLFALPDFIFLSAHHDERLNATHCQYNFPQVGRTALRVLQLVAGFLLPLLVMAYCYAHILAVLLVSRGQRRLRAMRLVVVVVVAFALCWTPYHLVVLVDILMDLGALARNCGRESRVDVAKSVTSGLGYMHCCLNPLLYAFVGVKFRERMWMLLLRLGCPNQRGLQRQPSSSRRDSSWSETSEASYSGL
# Test: CXCR3/IP-10 radioligand binding assay (125I-IP-10 competition on CXCR3.L1/2 cell membranes)
# Details: test compound 10 μmol/L; 125I-labeled IP-10 0.05 to 0.2 nmol/L; CXCR3.L1/2 transfectant cell membranes; 60 min at room temperature
# Excerpt: The activity of the compounds of the present invention can be assessed using a suitable assay, such as a receptor binding assay, a chemotaxis assays, an extracellular acidification assay or a calcium flux assay (see, for example, Hesselgesser et al., J. Biol. Chem. 273(25):15687-15692 (1998) and WO 98/02151). For example, as described herein, small organic molecule antagonists of CXCR3/IP-10 binding have been identified utilizing cells engineered to express recombinant human CXCR3 (CXCR3.L1/2) and which bind ^125I-IP10 and chemotax in response to IP-10, Mig or I-TAC. Specifically, a high through-put receptor binding assay, which monitors ^125I-IP10 binding to CXCR3.L1/2 cell membranes, was used to identify small molecule antagonists which block binding of IP-10, Mig or I-TAC to CXCR3.
# CXCR3.L1/2 cells were pelleted by centrifugation and stored at −80° C.. The cells were lysed by thawing and resuspending at about 1.5×10^7 cells/ml in a hypotonic buffer (5 mmol/L HEPES (pH 7.2), 2 mmol/L EDTA, 10 μg/ml each leupeptin, aprotinin, and chymostatin, and 100 μg/ml PMSF (all from Sigma, St. Louis)). Nuclei and cellular debris was removed by centrifugation ([…], at 4° C.) for 10 min. The supernatant was transferred to chilled centrifuge tubes (Nalge, Rochester, N.Y.) and the membrane fraction was recovered by centrifugation (25,000 g at 4° C.) for 45 min. The membrane pellet was resuspended in freezing buffer (10 mM HEPES (pH 7.2), 300 mmol/L Sucrose, 5 μg/ml each of leupeptin, aprotinin, and chymostatin, and 10 μg/ml PMSF). The total protein concentration was determined using a coomassie blue staining protein concentration assay kit (BioRad). The membrane preparation was aliquoted and stored at −80° C. until time of use.
# CXCR3/IP-10 binding was performed in 96-well polypropylene plates (Costar) in a final volume of 0.1 ml of HBB buffer (50 mmol/L Hepes pH 7.4, 1 mmol/L CaCl2, 5 mmol/L MgCl2, 0.02% sodium azide, 0.5% BSA (bovine serum albumin)) containing 1 to 5 μg of CXCR3.L1/2 transfectant cell membrane protein and 0.05 to 0.2 nmol/L ^125I-labeled IP-10 (NEN, Boston, Mass.). Competition binding experiments were performed by including variable concentrations of unlabeled IP-10 or test compound. Nonspecific binding was determined following the addition of a 250 nmol/L unlabelled IP-10. Samples were incubated for 60 min at room temperature, and bound and free tracer (^125I-IP10) were separated by filtration through 96-well GF/B filterplates (Packard) presoaked in 0.3% polyethyleneimine. The filters were washed in HBB further supplemented with 0.5 mol/L NaCl, dried, and the amount of bound radioactivity determined by liquid scintillation counting. The competition is presented as the percent specific binding as calculated by 100×[(S−B)/(T−B)], where S is the radioactivity bound for each sample, B is background binding, and T is total bound in the absence of competitors. Duplicates were used throughout the experiments.
row,Compound,% inhibition at 10 μmol/L [%]
1,"N#CC(C#N)=C1N(CCCc2ccccc2)CCN1CCSCc1cccc(CN2CCCCC2)c1 [Compound 10, 1-{2-(3-Piperidinomethylbenzylthio)ethyl}-3-(3-phenylpropyl)-2-imidazolidinylidenepropanedinitrile]",86
2,1-{2-(3-Piperidinomethylbenzylthio)ethyl}-3-(1-naphthoyl)-2-imidazolidinylidenepropanedinitrile [Compound 7],93
3,"1-{2-(3-Piperidinomethylbenzylthio)ethyl}-3-(2,3-methylenedioxybenzyl)-2-imidazolidinylidenepropanedinitrile [Compound 6]",84
4,1-{2-(3-Piperidinomethylbenzylthio)ethyl}-3-(1-acenaphthenyl)-2imidazolidinylidenepropanedinitrile [Compound 4],95
5,"N#CC(C#N)=C1N(CCSCc2ccc(CN3CCCCC3)cc2)CCN1Cc1cccc2ccccc12 [Compound 2, 1-{2-(4-Piperidinomethylbenzylthio)ethyl}-3-(1-naphthylmethyl)-2-imidazolidinylidenepropanedinitrile]",94
6,"Cc1cccc(CN2CCN(CCSCc3cccc(CN4CCCCC4)c3)C2=C(C#N)C#N)c1C [Compound 3, 1-{2-(3-Piperidinomethylbenzylthio)ethyl}-3-(2,3-dimethylbenzyl)-2-imidazolidinylidenepropanedinitrile]",91
7,1-{2-(3-Piperidinomethylbenzylthio)ethyl}-3-{1-(8-methylnaphthyl)methyl}-2-imidazolidinylidenepropanedinitrile [Compound 11],96
8,"N#CC(C#N)=C1N(CCSCc2cccc(CN3CCCCC3)c2)CCN1Cc1cccc2ccccc12 [Compound 1, 1-{2-(3-Piperidinomethylbenzylthio)ethyl}-3-(1-naphthylmethyl)-2-imidazolidinylidenepropanedinitrile]",108
